According to paper PMC9558053, “Development of a novel high-throughput screen for the identification of new inhibitors of protein S-acylation” (The Journal of Biological Chemistry, 2022):

Biological target: T1, human zDHHC3 (Homo sapiens, UniProt Q9NYG2)
T1 construct: expressed in transfected cells; host or cells: HEK293T
T1 sequence (Q9NYG2 1-299): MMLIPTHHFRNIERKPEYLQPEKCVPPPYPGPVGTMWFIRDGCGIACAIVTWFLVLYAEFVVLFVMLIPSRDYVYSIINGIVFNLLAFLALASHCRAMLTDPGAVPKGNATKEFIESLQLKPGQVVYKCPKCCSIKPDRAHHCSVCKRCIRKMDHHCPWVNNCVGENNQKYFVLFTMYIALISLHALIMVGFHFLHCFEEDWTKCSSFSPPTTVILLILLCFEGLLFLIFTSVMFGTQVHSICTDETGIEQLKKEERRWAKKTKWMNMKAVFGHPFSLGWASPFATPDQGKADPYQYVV
Assay: PSD95-mCHERRY S-acylation in HEK293T cells co-expressing zDHHC3
Type: cell-based
Settings: 25 μM
Description: PSD95 (postsynaptic density protein 95) is a major S-acylated protein that has a critical role in the maturation of excitatory neurons and in synaptic plasticity ([46], [47]). PSD95 can be S-acylated by zDHHC2, zDHHC3, zDHHC7, and zDHHC15 ([6]). […] We therefore tested the effects of TTZ-1 and TTZ-2 on the S-acylation of PSD95 mediated by zDHHC2, zDHHC3, zDHHC7, and zDHHC15. […] In contrast, zDHHC3 and zDHHC7 activities toward PSD95 were unaffected by TTZ-1 and TTZ-2, mirroring the data obtained with GFP-SNAP25 as a substrate.
Figure 9 Activity of TTZ-1 and TTZ-2 against PSD95 S-acylation mediated by human zDHHC2, zDHHC3, zDHHC7, and zDHHC15 expressed in mammalian cells. HEK293T cells were transfected with a plasmid encoding PSD95-mCHERRY together with either a control plasmid pEF-BOS-HA (pEF) or a plasmid encoding either HA-tagged human zDHHC2 (zD2), zDHHC3 (zD3), zDHHC7 (zD7), or zDHHC15 (zD15) for 24 h. Cells were then preincubated for 4 h with TTZ-1 or TTZ-2 (25 μM final) or DMSO control before metabolic labeling with 100 μM C16:0-azide for 4 h. Cells were lysed, and proteins having incorporated C16:0-azide were labeled by click chemistry with an alkyne-IR800 dye. […] The data were quantified, and the graphs below each set of membranes show mean ± SEM of normalized S-acylation of PSD95-mCHERRY (click signal/RFP signal). […]

| Structure (SMILES) | PSD95-mCHERRY S-acylation by zDHHC3 |
| --- | --- |
| CCCCCCCOc1ccc(C(=O)Nc2cccc3c2OC(c2nnn[nH]2)CN3)cc1 (centres unmarked) [TTZ-1, N-(2-(1H-Tetrazol-5-yl)-3,4-dihydro-2H-benzo[b][1,4]oxazin-8-yl)-4-(heptyloxy)benzamide] | unaffected |
| O=C(Nc1cccc2c1OC(c1nnn[nH]1)CN2)c1ccc(OCCCCc2ccccc2)cc1 (centres unmarked) [TTZ-2, N-(2-(1H-Tetrazol-5-yl)-3,4-dihydro-2H-benzo[b][1,4]oxazin-8-yl)-4-(4-phenylbutoxy)benzamide] | unaffected |
